Data on ten compounds can be found in patent publication US8618303B2, “Pyrrolidine derivatives” (Hoffmann-La Roche Inc., priority 2011, dated 2013).

Read-outs that look alike come from different tables or passages of the source.

For experiment [1] the following is noted: phase II trial; cited from earlier work.
Another experiment concerns the target human NK3 receptor (Homo sapiens (Human), UniProt P29371). Description: [3H]SR142801 competition binding assay. As to the method: hNK3 receptor binding experiment were performed using [^3H]SR142801 (Catalog No. TRK1035, specific activity: 74.0 Ci/mmol, Amersham, GE Healthcare UK limited, Buckinghamshire, UK) and membrane isolated from HEK293 cells transiently expressing recombinant human NK3 receptor. After thawing, the membrane homogenates were centrifuged at 48,000×g for 10 min at 4° C., the pellets were resuspended in the 50 mM Tris-HCl, 4 mM MnCl2, 1 μM phosphoramidon, 0.1% BSA binding buffer at pH 7.4 to a final assay concentration of 5 μg protein/well. […] At the end of the incubation, membranes were filtered onto unitfilter (96-well white microplate with bonded GF/C filter preincubated 1 h in 0.3% PEI+0.3% BSA, Packard BioScience, Meriden, Conn.) with a Filtermate 196 harvester (Packard BioScience) and washed 4 times with ice-cold 50 mM Tris-HCl, pH 7.4 buffer. Nonspecific binding was measured in the presence of 10μM SB222200 for both radioligands. The radioactivity on the filter was counted (5 min) on a Packard Top-count microplate scintillation counter with quenching correction after addition of 45 μl of microscint 40 (Canberra Packard S.A., Ziirich, Switzerland) and shaking for 1 h. Inhibition curves were fitted according to the Hill equation: y=100/(1+(x/IC50), where nH=slope factor using Excel-fit 4 software (Microsoft). IC50 values were derived from the inhibition curve and the affinity constant (Ki) values were calculated using the Cheng-Prussoff equation Ki =IC50/(1+[L]/KD) where [L] is the concentration of radioligand and KD is its dissociation constant at the receptor, derived from the saturation isotherm. All experiments were performed in duplicate and the mean±standard error (SEM) of the individual Ki values was calculated.

[2] abbreviates: membranes from HEK293 cells transiently expressing recombinant human NK3 receptor, [3H]SR142801, Ki from IC50 by Cheng-Prussoff, read-out: Ki (uM) hNK3.

Chain of human NK3 receptor (P29371 whole entry): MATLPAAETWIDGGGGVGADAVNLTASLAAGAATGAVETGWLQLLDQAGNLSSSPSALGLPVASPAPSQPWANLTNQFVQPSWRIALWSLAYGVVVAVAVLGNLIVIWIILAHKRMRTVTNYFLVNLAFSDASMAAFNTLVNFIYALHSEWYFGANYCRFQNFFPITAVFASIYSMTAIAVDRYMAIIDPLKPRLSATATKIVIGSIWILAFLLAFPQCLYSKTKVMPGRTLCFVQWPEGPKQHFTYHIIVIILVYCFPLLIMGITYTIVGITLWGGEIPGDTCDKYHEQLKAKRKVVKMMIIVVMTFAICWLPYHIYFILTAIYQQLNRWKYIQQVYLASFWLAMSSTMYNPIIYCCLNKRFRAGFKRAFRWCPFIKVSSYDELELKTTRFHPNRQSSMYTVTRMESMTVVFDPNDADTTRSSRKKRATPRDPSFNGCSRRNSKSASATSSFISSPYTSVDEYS

In the case of `CC(=O)N(C)C1(c2ccccc2)CCN(CCC[C@]2(c3ccc(Cl)c(Cl)c3)CCCN(C(=O)c3ccccc3)C2)CC1` [SR 142,801, Osanetant], in experiment [1], the “activity on negative symptoms of schizophrenia” value was “inactive in the treatment of negative symptoms” and the “activity on positive symptoms of schizophrenia” value was “active on positive symptoms of schizophrenia”.

Broadly, the Ki is the equilibrium dissociation constant of an inhibitor or competing ligand from its target. The compound `COc1ccc(N2CCC(C(=O)N3C[C@@H](N(C)C(=O)Oc4ccc(F)cc4)[C@](C)(c4ccc(Cl)cc4)C3)CC2)nn1` (racemic) [Example 35, rac-{(3S,4R)-4-(4-Chloro-phenyl)-1-[1-(6-methoxy-pyridazin-3-yl)-piperidine-4-carbonyl]-4-methyl-pyrrolidin-3-yl}-methyl-carbamic acid 4-fluoro-phenyl ester] registered a Ki at human NK3 receptor of 0.0213 µM. Consider `CN(C(=O)Oc1ccc(F)cc1)[C@@H]1CN(C(=O)C2CCN(c3ccc(Cl)cn3)CC2)C[C@@]1(C)c1ccc(Cl)cc1` (racemic) [Example 32, rac-[(3S,4R)-4-(4-Chloro-phenyl)-1-(5′-chloro-3,4,5,6-tetrahydro-2H-[1,2′]bipyridinyl-4-carbonyl)-4-methyl-pyrrolidin-3-yl]-methyl-carbamic acid 4-fluoro-phenyl ester], for which the Ki at human NK3 receptor (setting [2]) was 0.0099 µM. Still for that read-out and setting: then `CN(C(=O)Oc1ccc(F)cc1)[C@@]1(C)CN(C(=O)c2ccc(C#N)cc2)C[C@@H]1c1ccc(Cl)cc1` (racemic) [Example 3, rac-[(3R,4S)-4-(4-Chloro-phenyl)-1-(4-cyano-benzoyl)-3-methyl-pyrrolidin-3-yl]-methyl-carbamic acid 4-fluoro-phenyl ester], with 0.0678 µM; and `Cc1ccc(N2CCC(C(=O)N3C[C@@H](N(C)C(=O)Oc4ccc(F)cc4)[C@](C)(c4ccc(Cl)cc4)C3)CC2)nc1` (racemic) [Example 29, rac-[(3S,4R)-4-(4-Chloro-phenyl)-4-methyl-1-(5′-methyl-3,4,5,6-tetrahydro-2H-[1,2′]bipyridinyl-4-carbonyl)-pyrrolidin-3-yl]-methyl-carbamic acid 4-fluoro-phenyl ester], with 0.0245 µM; and `CN(C(=O)Oc1ccc(F)cc1)[C@@H]1CN(C(=O)C2CCOCC2)C[C@@]1(C)c1ccc(Cl)cc1` (racemic) [Example 28, rac-[(3S,4R)-4-(4-Chloro-phenyl)-4-methyl-1-(tetrahydro-pyran-4-carbonyl)-pyrrolidin-3-yl]-methyl-carbamic acid 4-fluoro-phenyl ester], with 0.348 µM. Same read-out and setting: under `CC(=O)N1CCC(C(=O)N2C[C@@H](N(C)C(=O)Oc3ccc(F)cc3)[C@](C)(c3ccc(Cl)cc3)C2)CC1` (racemic) [Example 27, rac-[(3S,4R)-1-(1-Acetyl-piperidine-4-carbonyl)-4-(4-chloro-phenyl)-4-methyl-pyrrolidin-3-yl]-methyl-carbamic acid 4-fluoro-phenyl ester] stands 0.051 µM. Same read-out and setting: under `CC(=O)N1CCC(C(=O)N2C[C@H](c3ccc(Cl)cc3)[C@@](C)(N(C)C(=O)Oc3ccc(F)cc3)C2)CC1` (racemic) [Example 4, rac-[(3R,4S)-1-(1-Acetyl-piperidine-4-carbonyl)-4-(4-chloro-phenyl)-3-methyl-pyrrolidin-3-yl]-methyl-carbamic acid 4-fluoro-phenyl ester] stands 0.0116 µM. Consider `CC(C)C(=O)N1CCC(C(=O)N2C[C@@H](N(C)C(=O)Oc3ccc(F)cc3)[C@](C)(c3ccc(Cl)cc3)C2)CC1` (racemic) [Example 24, rac-[(3S,4R)-4-(4-Chloro-phenyl)-1-(1-isobutyryl-piperidine-4-carbonyl)-4-methyl-pyrrolidin-3-yl]-methyl-carbamic acid 4-fluoro-phenyl ester], for which the Ki on human NK3 receptor (setting [2]) amounted to 0.0392 µM. Turning to `CN(C(=O)Oc1ccc(F)cc1)[C@@H]1CN(C(=O)C2CCN(C(=O)C3(C)CC3)CC2)C[C@@]1(C)c1ccc(Cl)cc1` (racemic) [Example 21, rac-{(3S,4R)-4-(4-Chloro-phenyl)-4-methyl-1-[1-(1-methyl-cyclopropanecarbonyl)-piperidine-4-carbonyl]-pyrrolidin-3-yl}-methyl-carbamic acid 4-fluoro-phenyl ester], at human NK3 receptor, the Ki came to 0.0319 µM.
